4 compounds from article doi:10.1101/2025.11.27.690678v1, “Experience from an HTS campaign: Investigation of susceptibility and rescue of SARS-CoV-2 nsp3 protease assay from metal contamination” (biorxiv, 2025) can be followed below.

Molecules are shown by their SMILES. Some results are limits rather than exact numbers.

The target of this experiment is T1, SARS-CoV-2 nsp3 (Twinstrep nsp3 (179-1329)-His); PLPro (Severe acute respiratory syndrome coronavirus 2, UniProt P0DTD1).
T1 construct: gene rep
The experiment is described as follows: fluorescence, RLRGG-AMC cleavage. The format is biochemical. An excerpt:
fluorescence, RLRGG-AMC cleavage on SARS-CoV-2 nsp3 (Twinstrep nsp3 (179-1329)-His); PLPro
Usually IC50 stands for the concentration that inhibits the measured activity by half. As to `O=C(O)c1cn(-c2cccc(C(F)(F)F)c2)nn1` [compound 1, Compound 1], the IC50 is more than 100 µM. Then `Cn1ccnc1-c1cn(CCCc2csc(N)n2)nn1` [compound 2, Compound 2], with more than 100 µM.

For the compound `COc1ccc(-n2cc(CNC(=O)c3cc[nH]n3)nn2)cc1` [compound 3, Compound 3], the IC50 was more than 100 µM.

`CC(=O)Nc1ccc(Sc2ccccc2C(=O)O)cn1` [compound 4, Compound 4] gave an IC50 of more than 100 µM.
